Sequences and labels used below:
T1: AtGPA1 (Arabidopsis thaliana, UniProt P18064)
T1 sequence (P18064 1-383): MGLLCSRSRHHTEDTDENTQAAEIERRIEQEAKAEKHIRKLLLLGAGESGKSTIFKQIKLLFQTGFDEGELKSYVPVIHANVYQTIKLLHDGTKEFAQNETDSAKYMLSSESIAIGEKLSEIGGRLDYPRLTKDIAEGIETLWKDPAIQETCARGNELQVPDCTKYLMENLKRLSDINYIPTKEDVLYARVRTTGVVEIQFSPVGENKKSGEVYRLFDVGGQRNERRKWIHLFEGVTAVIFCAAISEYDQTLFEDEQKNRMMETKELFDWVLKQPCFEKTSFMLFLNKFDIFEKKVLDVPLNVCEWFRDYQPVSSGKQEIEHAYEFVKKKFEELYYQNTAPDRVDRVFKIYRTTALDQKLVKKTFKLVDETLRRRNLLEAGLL

T2: XLG2 (Arabidopsis thaliana, UniProt C6KIE6)
T2 sequence (C6KIE6 435-861): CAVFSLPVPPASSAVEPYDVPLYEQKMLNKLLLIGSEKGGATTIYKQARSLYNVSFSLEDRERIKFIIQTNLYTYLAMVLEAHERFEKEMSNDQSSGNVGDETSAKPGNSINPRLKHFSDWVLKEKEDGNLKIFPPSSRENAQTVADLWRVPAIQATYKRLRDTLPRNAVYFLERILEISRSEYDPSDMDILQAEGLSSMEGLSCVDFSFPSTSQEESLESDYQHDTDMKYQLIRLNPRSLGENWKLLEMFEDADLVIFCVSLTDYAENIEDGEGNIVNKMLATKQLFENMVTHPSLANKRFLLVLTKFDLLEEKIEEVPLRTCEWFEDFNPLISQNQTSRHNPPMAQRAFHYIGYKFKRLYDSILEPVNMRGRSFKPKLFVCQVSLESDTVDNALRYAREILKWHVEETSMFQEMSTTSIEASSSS

T3: Arabidopsis Gβγ dimer (AGB1/AGG1) (Arabidopsis, UniProt P49177 1-377; Q9FDX9 1-98)
T3 sequence (looked up) 1: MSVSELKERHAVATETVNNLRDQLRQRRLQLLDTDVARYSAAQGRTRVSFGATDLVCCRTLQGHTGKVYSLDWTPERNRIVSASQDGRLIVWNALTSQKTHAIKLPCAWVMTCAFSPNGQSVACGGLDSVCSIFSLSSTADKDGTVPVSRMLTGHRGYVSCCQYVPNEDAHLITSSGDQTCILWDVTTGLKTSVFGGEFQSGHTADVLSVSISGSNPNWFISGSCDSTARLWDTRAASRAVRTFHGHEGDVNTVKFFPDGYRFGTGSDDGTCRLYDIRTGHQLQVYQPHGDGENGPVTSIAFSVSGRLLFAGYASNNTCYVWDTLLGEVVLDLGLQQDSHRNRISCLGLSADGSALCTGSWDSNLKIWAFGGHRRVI
T3 sequence (looked up) 2: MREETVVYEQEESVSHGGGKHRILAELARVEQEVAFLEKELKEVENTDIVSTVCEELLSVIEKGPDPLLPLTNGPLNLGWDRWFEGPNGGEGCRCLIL

B1: XLG2 C terminal Gα domain (residues from 435 to 861) (domain or fragment, Arabidopsis, UniProt C6KIE6 435-861, looked up)
chain: T2 sequence (C6KIE6 435-861)
B2: RGS+Ct (AtRGS1, residues from 284 to 459) (domain or fragment, Arabidopsis, UniProt Q8H1F2 284-459, looked up)
chain: KEEFRPVDPNEPLDKLLLNKRFRHSFMEFADSCYAGETLHFFEEVYEHGKIPEDDSIRRIYMARHIMEKFIVAGAEMELNLSHKTRQEILTTQDLTHTDLFKNALNEVMQLIKMNLVRDYWSSIYFIKFKEEESCHEAMHKEGYSFSSPRLSSVQGSDDPFYQEHMSKSSRCSSPG
B3: RGS1-C domain: recombinant C-terminal RGS domain of Arabidopsis AtRGS1, residues from 284 to 459 (protein)
chain: B2 chain
modifications: left off: His, end not stated, cleaved | GST, end not stated, cleaved
B4: Twinstrep-AtGPA1 (natural protein, Arabidopsis, UniProt P18064 1-383, looked up)
chain: T1 sequence (P18064 1-383)
B5: Gβγ: Arabidopsis Gβγ dimer (AGB1/AGG1), His tagged, expressed in Sf9 cells (protein)
chain 1: T3 sequence (looked up) 1
chain 2: T3 sequence (looked up) 2
modifications: left off: His6, N-terminal, state not stated | His6, end not stated, state not stated

Assay [1] addresses T1, AtGPA1. In words: Microscale thermophoresis. It is filed as binding. On the technique in general: Microscale thermophoresis detects binding through changes in fluorescence in a small temperature gradient.
The next assay addresses T2, XLG2. In words: Microscale thermophoresis. The format is binding.
Assay [2] deals with T1, AtGPA1. Conditions: read-out: Kd for GTPγS binding to AtGPA1 using a radioactive ligand, ref Johnston, Willard, Kimple, Siderovski, 2008; cited from earlier work.
A further assay has as its target animal G subunits. The following applies: read-out: range of Kds reported for animal G subunits; ref Malinski, Zera, Angleson, & Wensel, 1996; cited from earlier work.
Assay [3] has as its target T3, Arabidopsis Gβγ dimer (AGB1/AGG1). The experiment in a line: MST.
Assay [4] concerns the target B4. The experiment in a line: MST.
Assay [5] concerns the target B1. The experiment in a line: MST.
Assay [6] addresses B4. In words: MST. This is another data set of the same source.
Setting [7] is: Kd, nucleotide binding to AtGPA1, MST, 25°C, polyHis-tagged AtGPA1.
The mark [8] stands for this setting: Kd, nucleotide binding to XLG2, MST, 25°C, in the presence of Mg2+.
Where [9] appears, read: Kd, nucleotide binding to XLG2 in the presence of Ca2+, MST, Ca2+ instead of Mg2+.

Values joined by “and” are separate entries in the source; they are usually repeats but may differ in a detail not shown here. Equal entries are not always repeated. Where two headings read alike, the source gives them in different places.

Here are results for seven molecules from PMC7308192 (Journal of biomolecular structure & dynamics, 2019).

As for `Nc1nc2c(ncn2[C@@H]2O[C@H](COP(=O)(O)OP(=O)(O)O)[C@@H](O)[C@H]2O)c(=O)[nH]1` [GDP, guanosine diphosphate], the values for the Kd on AtGPA1 [1] (setting [7]), on XLG2 (setting [8]) and at XLG2 (setting [9]) were 28000 ± 12000 nM, 177000 ± 33000 nM and roughly 28000 nM, respectively. At XLG2 (Kd XLG2 vs AtGPA1), the “affinity of XLG2 lower than of AtGPA1” value was ~ 6 fold.

Consider `Nc1nc2c(ncn2[C@@H]2O[C@H](COP(=O)(O)OP(=O)(O)OP(O)(O)=S)[C@@H](O)[C@H]2O)c(=O)[nH]1` [GTPγS], for which the Kd was ~21 nM and 21 nM at AtGPA1 [1] (setting [7]); 2350 ± 460 nM on XLG2 (Kd, nucleotide binding to XLG2, MST, 25°C, Mg2+); roughly 2000 nM on XLG2 (setting [8]); roughly 186000 nM at XLG2 (setting [9]); roughly 2 nM at AtGPA1 [2]; 10 to 100 nM on animal G subunits. For the same molecule, the “affinity of XLG2 lower than that of AtGPA1 / canonical Gα subunits” value at XLG2 (Kd XLG2 vs AtGPA1, same conditions) was determined as 100 times.

Regarding B1, in assay [3], the Kd is 700 nM.

Regarding B2, the Kd came to 125 nM in the assay with Twinstrep-AtGPA1 [4], 198 nM in assay [5] and 67 nM in the assay with Twinstrep-AtGPA1 [6].

Take B3: in the assay with XLG2 (XLG2 vs AtGPA1 in transition state), the “affinity of XLG2 for RGS domain lower than AtGPA1 in its transition state” value is reported as “about 2 times”.

Take B4: the Kd in assay [3] was 2000 nM.

Consider B5, for which the Kd was ~2000 nM and 2000 nM with AtGPA1 [1] (read-out: Kd, Gβγ binding to AtGPA1, Gα in GDP state, MST, Gα in GDP state); ~700 nM and 700 nM in the assay with XLG2 (read-out: Kd, Gβγ binding to XLG2 Gα domain, MST, column head: Gα in GDP state).
